Biological target: human TPH1 (Homo sapiens (Human), UniProt P17752)
Assay: Biochemical in vitro assay using fluorescence readout (TPH1 inhibition)
[1] = human TPH1, fluorescence readout

Chain of human TPH1 (P17752 whole entry): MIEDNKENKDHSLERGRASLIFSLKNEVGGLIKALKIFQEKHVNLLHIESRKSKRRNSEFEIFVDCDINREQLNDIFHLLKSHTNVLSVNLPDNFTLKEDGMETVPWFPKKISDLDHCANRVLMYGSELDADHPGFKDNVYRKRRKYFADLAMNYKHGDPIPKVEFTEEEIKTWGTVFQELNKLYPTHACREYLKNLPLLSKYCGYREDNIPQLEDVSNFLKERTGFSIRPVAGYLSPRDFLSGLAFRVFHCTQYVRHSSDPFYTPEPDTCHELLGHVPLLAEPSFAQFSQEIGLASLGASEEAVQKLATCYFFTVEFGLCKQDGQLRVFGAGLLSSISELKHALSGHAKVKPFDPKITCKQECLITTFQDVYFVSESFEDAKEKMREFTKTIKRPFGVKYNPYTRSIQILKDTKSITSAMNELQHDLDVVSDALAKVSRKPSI

Row | SMILES | IC50 (full length human TPH1, 40 μM L-tryptophan, 15° C., 60 minutes, fluorescence at 540 nm, mean if determined several times) | IC50 [1]
1 | CNC(=O)c1ccc(OCC(=O)N2CCc3nc4sc(C)nn4c3C2c2cc(C(=O)N(C)C)cs2)c(Cl)n1 (stereo not shown) [Example 1.9.6, 6-Chloro-5-(2-(5-(4-(dimethylcarbamoyl)thiophen-2-yl)-2-methyl-7,8-dihydro-[1,3,4]-thiadiazolo[2′,3′:2,3]imidazo[4,5-c]pyridin-6(5H)-yl)-2-oxoethoxy)-N-methyl-picolinamide] | 99 nM | –
2 | CCc1nc(C)ccc1OCC(=O)N1CCc2nc3sc(C)nn3c2C1c1cnc(C2CC2)nc1 (stereo not shown) [Example 1.10.1, 1-(5-(2-cyclopropylpyrimidin-5-yl)-2-methyl-7,8-dihydro-[1,3,4]thiadiazolo[2′,3′:2,3]imidazo[4,5-c]pyridin-6(5H)-yl)-2-((2-ethyl-6-methylpyridin-3-yl)oxy)ethanone] | – | 187 nM
3 | Cc1nn2c3c(nc2s1)CCN(C(=O)COc1ccc(N2CCOCC2)cc1Cl)C3c1cnc(C2CC2)nc1 (stereo not shown) [Example 1.10.2, 2-(2-chloro-4-morpholinophenoxy)-1-(5-(2-cyclopropyl-pyrimidin-5-yl)-2-methyl-7,8-dihydro-[1,3,4]thiadiazolo [2′,3′:2,3]imidazo[4,5-c]pyridin-6(5H)-yl)ethanone] | – | 18 nM
4 | CCc1nc(C)ccc1OCC(=O)N1CCc2nc3sc(C)nn3c2C1c1cnc(C2CC2)nc1C (stereo not shown) [Example 1.10.3, 1-(5-(2-cyclopropyl-4-methylpyrimidin-5-yl)-2-methyl-7,8-dihydro-[1,3,4]thiadiazolo[2′,3′:2,3]imidazo[4,5-c]pyridin-6(5H)-yl)-2-((2-ethyl-6-methylpyridin-3-yl)oxy)ethanone] | – | 38 nM
5 | Cc1nn2c3c(nc2s1)CCN(C(=O)COc1ccc(N2CCOCC2)cc1Cl)C3c1cnc(C2CC2)nc1C (stereo not shown) [Example 1.10.4, 2-(2-chloro-4-morpholinophenoxy)-1-(5-(2-cyclopropyl-4-methylpyrimidin-5-yl)-2-methyl-7,8-dihydro-[1,3,4]thiadiazolo [2′,3′:2,3]imidazo[4,5-c]pyridin-6(5H)-yl)ethanone] | – | 18 nM
6 | Cc1nn2c3c(nc2s1)CCN(C(=O)COc1ccc(Cl)cc1C)C3c1nc(-c2ccccc2)no1 (stereo not shown) [Example 1.11.1, 2-(4-chloro-2-methylphenoxy)-1-(2-methyl-5-(3-phenyl-1,2,4-oxadiazol-5-yl)-7,8-dihydro-[1,3,4]thiadiazolo [2′,3′:2,3]imidazo[4,5-c]pyridin-6(5H)-yl)ethanone] | – | 35 nM
7 | CCc1ncccc1OCC(=O)N1CCc2nc3sc(C)nn3c2C1c1nc(-c2ccccc2)no1 (stereo not shown) [Example 1.11.2, 2-((2-ethylpyridin-3-yl)oxy)-1-(2-methyl-5-(3-phenyl-1,2,4-oxadiazol-5-yl)-7,8-dihydro-[1,3,4]thiadiazolo[2′,3′:2,3]imidazo[4,5-c]pyridin-6(5H)-yl)ethanone] | – | 141 nM
8 | Cc1nn2c3c(nc2s1)CCN(C(=O)COc1ccc(N2CCOCC2)nc1Cl)C3c1nc(-c2ccccc2)no1 (stereo not shown) [Example 1.11.3, 2-((2-chloro-6-morpholinopyridin-3-yl)oxy)-1-(2-methyl-5-(3-phenyl-1,2,4-oxadiazol-5-yl)-7,8-dihydro-[1,3,4]thiadiazolo [2′,3′:2,3]imidazo[4,5-c]pyridin-6(5H)-yl)ethanone] | – | 4 nM
9 | Cc1nn2c3c(nc2s1)CCN(C(=O)COc1ccc(N2CCOCC2)nc1Cl)C3c1coc(-c2ccccc2)n1 (stereo not shown) [Example 1.12.1, 2-((2-chloro-6-morpholinopyridin-3-yl)oxy)-1-(2-methyl-5-(2-phenyloxazol-4-yl)-7,8-dihydro-[1,3,4]thiadiazolo [2′,3′:2,3]imidazo[4,5-c]pyridin-6(5H)-yl)ethanone] | – | 14 nM
10 | CCc1ncccc1OCC(=O)N1CCc2nc3sc(C)nn3c2C1c1coc(-c2ccccc2)n1 (stereo not shown) [Example 1.12.2, 2-((2-ethylpyridin-3-yl)oxy)-1-(2-methyl-5-(2-phenyloxazol-4-yl)-7,8-dihydro-[1,3,4]thiadiazolo[2′,3′:2,3]imidazo[4,5-c]pyridin-6(5H)-yl)ethanone] | – | 336 nM
11 | CC(=O)Nc1ccc(C2c3c(nc4sc(C)nn34)CCN2C(=O)COc2ccc(N3CCOCC3)nc2Cl)s1 (stereo not shown) [Example 1.13.1, N-(5-(6-(2-((2-chloro-6-morpholinopyridin-3-yl)oxy)acetyl)-2-methyl-5,6,7,8-tetrahydro-[1,3,4]thiadiazolo [2′,3′:2,3]imidazo[4,5-c]pyridin-5-yl)thiophen-2-yl)acetamide] | – | 54 nM
12 | Cc1nn2c3c(nc2s1)CCN(C(=O)COc1ccc(N2CCOCC2)nc1Cl)C3c1ncc(C2CC2)cc1F (stereo not shown) [Example 1.14.1, 2-((2-chloro-6-morpholinopyridin-3-yl)oxy)-1-(5-(5-cyclopropyl-3-fluoropyridin-2-yl)-2-methyl-7,8-dihydro-[1,3,4]thiadiazolo[2′,3′:2,3]imidazo[4,5-c]pyridin-6(5H)-yl)ethanone] | – | 4 nM
13 | CCc1nc(C)ccc1OCC(=O)N1CCc2nc3sc(C)nn3c2C1c1ncc(C2CC2)cc1F (stereo not shown) [Example 1.14.2, 1-(5-(5-cyclopropyl-3-fluoropyridin-2-yl)-2-methyl-7,8-dihydro-[1,3,4]thiadiazolo[2′,3′:2,3]imidazo[4,5-c]pyridin-6(5H)-yl)-2-((2-ethyl-6-methylpyridin-3-yl)oxy)ethanone] | – | 6 nM
14 | Cc1nn2c3c(nc2s1)CCN(C(=O)COc1ccc(C(F)(F)F)nc1Cl)C3c1ncc(C2CC2)cc1F (stereo not shown) [Example 1.14.3, 2-((2-chloro-6-(trifluoromethyl)pyridin-3-yl)oxy)-1-(5-(5-cyclopropyl-3-fluoropyridin-2-yl)-2-methyl-7,8-dihydro-[1,3,4]thiadiazolo[2′,3′:2,3]imidazo[4,5-c]pyridin-6(5H)-yl)ethanone] | – | 17 nM
15 | Cc1nn2c3c(nc2s1)CCN(C(=O)COc1ccc(C#N)nc1Cl)C3c1ncc(C2CC2)cc1F (stereo not shown) [Example 1.14.4, 6-chloro-5-(2-(5-(5-cyclopropyl-3-fluoropyridin-2-yl)-2-methyl-7,8-dihydro-[1,3,4]thiadiazolo[2′,3′:2,3]imidazo[4,5-c]pyridin-6(5H)-yl)-2-oxoethoxy)picolinonitrile] | – | 17 nM
16 | Cc1nn2c3c(nc2s1)CCN(C(=O)COc1ccc(N2CCOCC2)nc1F)C3c1ncc(C2CC2)cc1F (stereo not shown) [Example 1.14.5, 1-(5-(5-cyclopropyl-3-fluoropyridin-2-yl)-2-methyl-7,8-dihydro-[1,3,4]thiadiazolo[2′,3′:2,3]imidazo[4,5-c]pyridine-6(5H)-yl)-2-((2-fluoro-6-morpholinopyridin-3-yl)oxy)ethanone] | – | 9 nM
17 | Cc1nn2c3c(nc2s1)CCN(C(=O)COc1cc(F)c(I)nc1Cl)C3c1ncc(C2CC2)cc1F (stereo not shown) [Example 1.14.6, 2-((2-chloro-5-fluoro-6-iodopyridin-3-yl)oxy)-1-(5-(5-cyclopropyl-3-fluoropyridin-2-yl)-2-methyl-7,8-dihydro-[1,3,4]thiadiazolo[2′,3′:2,3]imidazo[4,5-c]pyridin-6(5H)-yl)ethanone] | – | 6 nM
18 | Cc1nn2c3c(nc2s1)CCN(C(=O)COc1cc(F)cnc1Cl)C3c1ncc(C2CC2)cc1F (stereo not shown) [Example 1.14.7, 2-((2-chloro-5-fluoropyridin-3-yl)oxy)-1-(5-(5-cyclopropyl-3-fluoropyridin-2-yl)-2-methyl-7,8-dihydro-[1,3,4]thiadiazolo [2′,3′:2,3]imidazo[4,5-c]pyridin-6(5H)-yl)ethanone] | – | 25 nM
19 | Cc1nn2c3c(nc2s1)CCN(C(=O)COc1ccc(C(=O)N(C)C)nc1Cl)C3c1ncc(C2CC2)cc1F (stereo not shown) [Example 1.14.8, 6-chloro-5-(2-(5-(5-cyclopropyl-3-fluoropyridin-2-yl)-2-methyl-7,8-dihydro-[1,3,4]thiadiazolo[2′,3′:2,3]imidazo[4,5-c]pyridin-6(5H)-yl)-2-oxoethoxy)-N,N-dimethylpicolinamide] | – | 3 nM
20 | Cc1nn2c3c(nc2s1)CCN(C(=O)COc1cc(F)c(N2CCOCC2)nc1Cl)C3c1ncc(C2CC2)cc1F (stereo not shown) [Example 1.14.9, 2-((2-chloro-5-fluoro-6-morpholinopyridin-3-yl)oxy)-1-(5-(5-cyclopropyl-3-fluoropyridin-2-yl)-2-methyl-7,8-dihydro-[1,3,4]thiadiazolo[2′,3′:2,3]imidazo[4,5-c]pyridin-6(5H)-yl)ethanone] | – | 4 nM
21 | Cc1nn2c3c(nc2s1)CCN(C(=O)COc1ccc(N(C)CC(F)(F)F)nc1Cl)C3c1ncc(C2CC2)cc1F (stereo not shown) [Example 1.14.10, 2-((2-chloro-6-(methyl(2,2,2-trifluoroethyl)amino)pyridin-3-yl)oxy)-1-(5-(5-cyclopropyl-3-fluoropyridin-2-yl)-2-methyl-7,8-dihydro-[1,3,4]thiadiazolo[2′,3′:2,3]imidazo[4,5-c]pyridin-6(5H)-yl)ethanone] | – | 4 nM
22 | Cc1nn2c3c(nc2s1)CCN(C(=O)COc1c(Cl)nc(N2CCOCC2)c(F)c1F)C3c1ncc(C2CC2)cc1F (stereo not shown) [Example 1.14.11, 2-((2-chloro-4,5-difluoro-6-morpholinopyridin-3-yl)oxy)-1-(5-(5-cyclopropyl-3-fluoropyridin-2-yl)-2-methyl-7,8-dihydro-[1,3,4]thiadiazolo[2′,3′:2,3]imidazo[4,5-c]pyridin-6(5H)-yl)ethanone] | – | 122 nM
23 | Cc1nn2c3c(nc2s1)CCN(C(=O)COc1c(F)cc(N2CCOCC2)nc1Cl)C3c1ncc(C2CC2)cc1F (stereo not shown) [Example 1.14.12, 2-((2-chloro-4-fluoro-6-morpholinopyridin-3-yl)oxy)-1-(5-(5-cyclopropyl-3-fluoropyridin-2-yl)-2-methyl-7,8-dihydro-[1,3,4]thiadiazolo[2′,3′:2,3]imidazo[4,5-c]pyridin-6(5H)-yl)ethanone] | – | 41 nM
24 | Cc1nn2c3c(nc2s1)CCN(C(=O)COc1ccc(NS(C)(=O)=O)nc1Cl)C3c1ncc(C2CC2)cc1F (stereo not shown) [Example 1.14.13, N-(6-chloro-5-(2-(5-(5-cyclopropyl-3-fluoropyridin-2-yl)-2-methyl-7,8-dihydro-[1,3,4]thiadiazolo[2′,3′:2,3]imidazo[4,5-c]pyridin-6(5H)-yl)-2-oxoethoxy)pyridin-2-yl)methanesulfonamide] | – | 7 nM
25 | Cc1nn2c3c(nc2s1)CCN(C(=O)COc1ccc(N(C)C)nc1Cl)C3c1cnc(OC(F)F)cc1C (stereo not shown) [Example 1.15.1, 2-((2-chloro-6-(dimethylamino)pyridin-3-yl)oxy)-1-(5-(6-(difluoromethoxy)-4-methylpyridin-3-yl)-2-methyl-7,8-dihydro-[1,3,4]thiadiazolo[2′,3′:2,3]imidazo[4,5-c]pyridin-6(5H)-yl)ethanone] | – | 58 nM

Reference: US9765092B2, “Tricyclic piperidine compounds” (ACTELION PHARMACEUTICALS LTD, priority 2013, dated 2017)
